From ChEMBL document CHEMBL3351909, “In vitro and in vivo characterization of a benzofuran derivative, a potential anticancer agent, as a novel Aurora B kinase inhibitor” (Eur J Med Chem, 2015)

Legend:
[1] = target: T1, Aurora kinase B (Homo sapiens, UniProt Q96GD4); assay: Inhibition of recombinant AURKB (unknown origin) after 60 mins by z'-lyte kinase assay
[2] = target: T2, Aurora kinase A (Homo sapiens, UniProt O14965); assay: Inhibition of recombinant AURKA (unknown origin) after 60 mins by z'-lyte kinase assay
T2 sequence (O14965 whole entry): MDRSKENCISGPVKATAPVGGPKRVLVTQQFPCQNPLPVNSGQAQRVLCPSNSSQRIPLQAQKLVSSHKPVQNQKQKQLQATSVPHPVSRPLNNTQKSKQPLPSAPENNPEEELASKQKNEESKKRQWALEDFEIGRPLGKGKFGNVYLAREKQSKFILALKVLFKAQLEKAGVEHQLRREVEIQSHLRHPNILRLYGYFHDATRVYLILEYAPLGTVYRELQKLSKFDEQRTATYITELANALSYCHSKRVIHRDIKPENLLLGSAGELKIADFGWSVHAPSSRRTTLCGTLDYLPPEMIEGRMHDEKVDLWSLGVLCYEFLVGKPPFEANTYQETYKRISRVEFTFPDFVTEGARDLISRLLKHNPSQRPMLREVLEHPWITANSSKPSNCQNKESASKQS

[3] = target: Glycogen synthase kinase-3 beta (Homo sapiens, UniProt P49841); assay: Inhibition of recombinant GSK-3 beta (unknown origin) after 60 mins by z'-lyte kinase assay
[4] = target: Vascular endothelial growth factor receptor 1 (Homo sapiens, UniProt P17948); assay: Inhibition of recombinant FLT1 (unknown origin) after 60 mins by z'-lyte kinase assay
Chain of Vascular endothelial growth factor receptor 1 (P17948 whole entry): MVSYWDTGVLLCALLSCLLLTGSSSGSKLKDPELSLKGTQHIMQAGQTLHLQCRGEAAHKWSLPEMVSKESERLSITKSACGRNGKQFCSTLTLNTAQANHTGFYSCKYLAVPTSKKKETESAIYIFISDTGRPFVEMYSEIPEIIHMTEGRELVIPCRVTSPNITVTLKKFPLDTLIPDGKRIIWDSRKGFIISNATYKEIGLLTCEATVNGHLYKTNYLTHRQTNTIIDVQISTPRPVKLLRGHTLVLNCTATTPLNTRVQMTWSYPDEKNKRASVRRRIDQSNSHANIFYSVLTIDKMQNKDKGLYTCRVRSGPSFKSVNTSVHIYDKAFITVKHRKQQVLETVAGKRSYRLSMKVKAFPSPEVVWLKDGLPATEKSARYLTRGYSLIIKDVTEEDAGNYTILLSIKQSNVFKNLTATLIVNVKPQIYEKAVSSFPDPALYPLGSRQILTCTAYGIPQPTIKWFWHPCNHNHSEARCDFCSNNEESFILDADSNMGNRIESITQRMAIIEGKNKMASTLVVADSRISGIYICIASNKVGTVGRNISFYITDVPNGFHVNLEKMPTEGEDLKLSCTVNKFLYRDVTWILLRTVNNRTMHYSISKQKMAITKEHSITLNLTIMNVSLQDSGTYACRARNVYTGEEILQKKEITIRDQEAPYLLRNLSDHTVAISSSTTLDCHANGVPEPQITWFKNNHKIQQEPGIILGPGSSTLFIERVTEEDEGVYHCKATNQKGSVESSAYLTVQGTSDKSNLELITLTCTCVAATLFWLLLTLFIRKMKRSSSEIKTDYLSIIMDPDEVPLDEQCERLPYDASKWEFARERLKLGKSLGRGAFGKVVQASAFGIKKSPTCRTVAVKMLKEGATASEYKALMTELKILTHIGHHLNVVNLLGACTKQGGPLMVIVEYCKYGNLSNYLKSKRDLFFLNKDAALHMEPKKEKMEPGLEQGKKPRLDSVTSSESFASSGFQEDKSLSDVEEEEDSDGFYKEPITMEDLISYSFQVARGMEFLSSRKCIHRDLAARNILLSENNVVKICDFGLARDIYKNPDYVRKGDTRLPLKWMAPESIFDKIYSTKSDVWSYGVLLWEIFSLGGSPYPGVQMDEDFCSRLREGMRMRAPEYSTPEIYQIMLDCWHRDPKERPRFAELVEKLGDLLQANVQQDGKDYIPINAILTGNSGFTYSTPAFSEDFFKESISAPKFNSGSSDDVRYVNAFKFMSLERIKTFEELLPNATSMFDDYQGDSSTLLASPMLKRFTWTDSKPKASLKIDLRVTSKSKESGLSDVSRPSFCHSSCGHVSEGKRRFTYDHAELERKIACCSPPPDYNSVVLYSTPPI

[5] = target: Platelet-derived growth factor receptor alpha (Homo sapiens, UniProt P16234); assay: Inhibition of recombinant PDGFR alpha (unknown origin) after 60 mins by z'-lyte kinase assay
Chain of Platelet-derived growth factor receptor alpha (P16234 whole entry): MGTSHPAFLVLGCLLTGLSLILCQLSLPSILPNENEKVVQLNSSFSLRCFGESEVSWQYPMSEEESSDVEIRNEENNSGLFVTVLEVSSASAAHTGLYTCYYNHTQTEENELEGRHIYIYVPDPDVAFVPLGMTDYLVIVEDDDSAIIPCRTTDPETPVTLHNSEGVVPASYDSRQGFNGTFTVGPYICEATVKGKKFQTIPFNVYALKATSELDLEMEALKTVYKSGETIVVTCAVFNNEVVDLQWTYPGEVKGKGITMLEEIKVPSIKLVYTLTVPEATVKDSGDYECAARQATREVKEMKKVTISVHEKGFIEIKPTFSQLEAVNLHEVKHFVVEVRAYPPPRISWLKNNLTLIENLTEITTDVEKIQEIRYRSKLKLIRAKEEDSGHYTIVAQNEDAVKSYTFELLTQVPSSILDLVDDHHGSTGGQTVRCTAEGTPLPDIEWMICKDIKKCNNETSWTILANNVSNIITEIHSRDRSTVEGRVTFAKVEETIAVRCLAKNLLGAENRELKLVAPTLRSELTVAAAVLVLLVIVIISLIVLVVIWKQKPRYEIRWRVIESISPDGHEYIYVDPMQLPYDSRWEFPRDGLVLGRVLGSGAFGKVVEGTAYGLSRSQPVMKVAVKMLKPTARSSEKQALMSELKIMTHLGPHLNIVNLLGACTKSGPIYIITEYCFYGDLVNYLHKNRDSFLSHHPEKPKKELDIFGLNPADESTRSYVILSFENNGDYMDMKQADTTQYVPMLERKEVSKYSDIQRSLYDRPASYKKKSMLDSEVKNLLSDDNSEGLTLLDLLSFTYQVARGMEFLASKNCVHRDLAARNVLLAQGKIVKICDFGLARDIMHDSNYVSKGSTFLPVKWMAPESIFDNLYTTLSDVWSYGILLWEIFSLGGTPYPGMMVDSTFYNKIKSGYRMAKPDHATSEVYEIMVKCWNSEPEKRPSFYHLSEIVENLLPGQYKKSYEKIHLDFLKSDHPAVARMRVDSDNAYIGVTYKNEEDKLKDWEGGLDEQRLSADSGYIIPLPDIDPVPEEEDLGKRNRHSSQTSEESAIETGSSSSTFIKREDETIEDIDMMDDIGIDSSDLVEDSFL

[6] = target: Aurora kinase C (Homo sapiens, UniProt Q9UQB9); assay: Inhibition of recombinant AURKC (unknown origin) after 60 mins by z'-lyte kinase assay
[7] = target: Vascular endothelial growth factor receptor 3 (Homo sapiens, UniProt P35916); assay: Inhibition of recombinant FLT4 (unknown origin) after 60 mins by z'-lyte kinase assay
[8] = target: Vascular endothelial growth factor receptor 2 (Homo sapiens, UniProt P35968); assay: Inhibition of recombinant KDR (unknown origin) after 60 mins by z'-lyte kinase assay
[9] = target: Serine/threonine-protein kinase Nek1 (Homo sapiens, UniProt Q96PY6); assay: Inhibition of recombinant NEK1 (unknown origin) after 60 mins by z'-lyte kinase assay
[10] = target: AMP-activated protein kinase, AMPK; assay: Inhibition of recombinant AMPK A1/B1/G1 (unknown origin) after 60 mins by z'-lyte kinase assay; assay type: protein-complex assay, Homo sapiens
[11] = target: Protein kinase C alpha type (Homo sapiens, UniProt P17252); assay: Inhibition of recombinant PKC alpha (unknown origin) after 60 mins by z'-lyte kinase assay
[12] = target: Cyclin-dependent kinase 1/cyclin B1 (Homo sapiens, UniProt P06493); assay: Inhibition of recombinant CDK1/cyclin B (unknown origin) after 60 mins by z'-lyte kinase assay; assay type: protein-complex assay
[13] = target: RAC-alpha serine/threonine-protein kinase (Homo sapiens, UniProt P31749); assay: Inhibition of recombinant AKT1 (unknown origin) after 60 mins by z'-lyte kinase assay
Chain of RAC-alpha serine/threonine-protein kinase (P31749 whole entry, canonical isoform): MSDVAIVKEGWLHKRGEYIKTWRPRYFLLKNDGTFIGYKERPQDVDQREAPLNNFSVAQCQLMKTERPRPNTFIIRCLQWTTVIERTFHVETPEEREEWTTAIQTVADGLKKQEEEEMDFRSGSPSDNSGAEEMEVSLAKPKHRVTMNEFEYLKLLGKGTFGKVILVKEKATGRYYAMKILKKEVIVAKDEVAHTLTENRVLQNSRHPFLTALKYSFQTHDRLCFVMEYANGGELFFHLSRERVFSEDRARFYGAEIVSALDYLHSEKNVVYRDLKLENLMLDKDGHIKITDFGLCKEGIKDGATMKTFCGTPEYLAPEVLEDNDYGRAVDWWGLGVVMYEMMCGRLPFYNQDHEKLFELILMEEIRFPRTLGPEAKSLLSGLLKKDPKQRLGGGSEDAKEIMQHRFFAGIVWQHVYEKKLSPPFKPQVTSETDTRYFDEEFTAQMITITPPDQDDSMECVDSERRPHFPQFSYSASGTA

[14] = target: Casein kinase I isoform alpha (Homo sapiens, UniProt P48729); assay: Inhibition of recombinant CK1 alpha1 (unknown origin) after 60 mins by z'-lyte kinase assay
Chain of Casein kinase I isoform alpha (P48729 whole entry, canonical isoform): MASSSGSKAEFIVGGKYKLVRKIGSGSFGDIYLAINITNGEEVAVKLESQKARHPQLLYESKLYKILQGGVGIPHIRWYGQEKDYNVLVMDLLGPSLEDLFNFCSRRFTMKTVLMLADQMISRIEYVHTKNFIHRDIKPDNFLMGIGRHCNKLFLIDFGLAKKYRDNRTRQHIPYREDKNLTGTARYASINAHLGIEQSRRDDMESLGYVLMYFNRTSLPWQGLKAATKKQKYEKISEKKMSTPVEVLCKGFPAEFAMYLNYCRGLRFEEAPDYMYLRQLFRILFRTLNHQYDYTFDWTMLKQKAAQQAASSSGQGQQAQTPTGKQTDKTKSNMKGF

[15] = target: Mitogen-activated protein kinase 1 (Homo sapiens, UniProt P28482); assay: Inhibition of recombinant MAPK1 (unknown origin) after 60 mins by z'-lyte kinase assay
Chain of Mitogen-activated protein kinase 1 (P28482 whole entry): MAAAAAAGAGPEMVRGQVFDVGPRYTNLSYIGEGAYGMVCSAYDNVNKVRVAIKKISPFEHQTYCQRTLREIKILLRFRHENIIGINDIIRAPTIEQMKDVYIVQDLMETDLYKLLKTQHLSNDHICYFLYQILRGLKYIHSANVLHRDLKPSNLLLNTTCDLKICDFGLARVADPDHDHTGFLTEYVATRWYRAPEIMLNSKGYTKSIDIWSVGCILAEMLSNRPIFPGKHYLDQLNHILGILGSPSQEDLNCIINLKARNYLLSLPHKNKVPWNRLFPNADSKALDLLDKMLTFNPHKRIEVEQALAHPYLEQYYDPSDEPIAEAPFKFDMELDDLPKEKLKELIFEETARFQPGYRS

[16] = target: T2, Aurora kinase A; assay: Binding affinity to AURKA (unknown origin)
[17] = target: T1, Aurora kinase B; assay: Binding affinity to AURKB (unknown origin)
[18] = tested on: SW-620; assay: Cytotoxicity against human SW620 cells after 96 hrs by CCK-8 assay; assay type: functional, cell-based; conditions: SW-620, 96 h
[19] = tested on: HepG2; assay: Cytotoxicity against human HepG2 cells after 96 hrs by CCK-8 assay; assay type: functional, cell-based; conditions: HepG2, 96 h
[20] = tested on: HeLa; assay: Cytotoxicity against human HeLa cells after 96 hrs by CCK-8 assay; assay type: functional, cell-based
[21] = Cytotoxicity against human HCT116 cells after 96 hrs by CCK-8 assay; assay type: functional, cell-based; conditions: HCT-116, 96 h
[22] = tested on: MCF7; assay: Cytotoxicity against human MCF7 cells after 96 hrs by CCK-8 assay; assay type: functional, cell-based; conditions: MCF7, 96 h
[23] = Cytotoxicity against human QGY7401 cells after 96 hrs by CCK-8 assay; assay type: functional, cell-based
[24] = tested on: SMMC-7721; assay: Cytotoxicity against human SMMC7721 cells after 96 hrs by CCK-8 assay; assay type: functional, cell-based; conditions: SMMC-7721, 96 h
[25] = Cytotoxicity against human SPC-A1 cells after 96 hrs by CCK-8 assay; assay type: functional, cell-based; conditions: SPCA1, 96 h
[26] = Cytotoxicity against human FOCUS cells after 96 hrs by CCK-8 assay; assay type: functional, cell-based
[27] = Cytotoxicity against human HuH7 cells after 96 hrs by CCK-8 assay; assay type: functional, cell-based; conditions: Huh-7, 96 h
[28] = Cytotoxicity against human SKOV3 cells after 96 hrs by CCK-8 assay; assay type: functional, cell-based; conditions: SK-OV-3, 96 h
[29] = Cytotoxicity against human Hep3B cells after 96 hrs by CCK-8 assay; assay type: functional, cell-based, Hep 3B2
[30] = tested on: HT-29; assay: Cytotoxicity against human HT-29 cells after 96 hrs by CCK-8 assay; assay type: functional, cell-based; conditions: HT-29, 96 h
[31] = Cytotoxicity against human PANC1 cells after 96 hrs by CCK-8 assay; assay type: functional, cell-based; conditions: PANC-1, 96 h
[32] = Cytotoxicity against human SKHEP1 cells after 96 hrs by CCK-8 assay; assay type: functional, cell-based; conditions: SK-HEP1, 96 h
[33] = tested on: CNE; assay: Cytotoxicity against human CNE cells after 96 hrs by CCK-8 assay; assay type: functional, cell-based
[34] = tested on: SW480; assay: Cytotoxicity against human SW480 cells after 96 hrs by CCK-8 assay; assay type: functional, cell-based; conditions: SW480, 96 h

T1 sequence (Q96GD4 whole entry): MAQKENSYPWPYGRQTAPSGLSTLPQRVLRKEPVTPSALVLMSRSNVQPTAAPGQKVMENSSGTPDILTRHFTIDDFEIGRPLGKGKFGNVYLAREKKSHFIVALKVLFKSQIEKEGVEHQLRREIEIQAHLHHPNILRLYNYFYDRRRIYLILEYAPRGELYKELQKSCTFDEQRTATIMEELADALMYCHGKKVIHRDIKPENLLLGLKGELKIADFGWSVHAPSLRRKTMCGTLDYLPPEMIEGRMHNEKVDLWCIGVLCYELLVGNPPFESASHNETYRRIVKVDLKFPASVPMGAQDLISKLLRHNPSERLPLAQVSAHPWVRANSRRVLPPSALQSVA

For O=C1/C(=C\c2ccc(O)c(O)c2)Oc2ccccc21, the IC50 [1] was 0.735 µM, the IC50 [2] was 1.34 µM and the IC50 [3] was 2.63 µM. It also gave an IC50 [4] of 3.7 µM, an IC50 [5] of 4.04 µM and an IC50 [6] of 4.75 µM. For the same compound, the IC50 [7] was 5.19 µM, the IC50 [8] was 5.96 µM and the IC50 [9] was 11.5 µM. For the same compound, the IC50 [10] was 19.5 µM, the IC50 [11] was 26.8 µM and the IC50 [12] was 37.4 µM. For the same compound, the IC50 [13] was 38.6 µM, the IC50 [14] was 78.8 µM and the IC50 [15] was 100 µM. It also gave a Kd [16] of 12.9 µM, a Kd [17] of 3.06 µM and an IC50 [18] of 3.9 µM. The IC50 [19] was 8.2 µM, the IC50 [20] was 13.4 µM and the IC50 [21] was 13.4 µM. It also gave an IC50 [22] of 16.2 µM, an IC50 [23] of 19.8 µM and an IC50 [24] of 20.3 µM. The IC50 [25] was 20.4 µM, the IC50 [26] was 20.7 µM and the IC50 [27] was 21.1 µM. It also gave an IC50 [28] of 26.1 µM, an IC50 [29] of 28.7 µM and an IC50 [30] of 34.9 µM. The IC50 [31] was 36.5 µM, the IC50 [32] was 41.9 µM and the IC50 [33] was 45.5 µM. The IC50 [34] was 50 µM.
